Peptide text beside a SMILES is read from it.
Target: T1, human factor XIa (Homo sapiens, UniProt P03951)
T1 construct: converted to the active enzyme factor XIa by factor XIIa
Assay: Hydrolysis of chromogenic substrate S-2366 by factor XIa
Type: biochemical
Experimental: According to one embodiment, a chromogenic substrate for factor XIa is incubated with the assay reaction mixture. The substrate should, under the conditions of the assay, be capable of hydrolysis by factor XIa to yield a hydrolysis product whose appearance may be monitored spectrophotometrically or by a microplate reader. Such substrates include, for example, L-pyroglutamyl-L-prolyl-L-arginine-p-nitroanilide and H-D-leucylthreonyl-arginine-p-nitroanilide, available from KabiVitrum in hydrochloride form as "S-2366" and "S-2511", respectively. The enzymatic activity of factor XIa catalyzes the hydrolysis of the peptide-p-nitroanilide bond, releasing the chromophore p-nitroaniline. The appearance of p-nitroaniline may be measured spectrophotometrically after a fixed hydrolysis time, at 405 nm. The change in absorbance is proportional to the enzyme activity.
S-2366 is the preferred substrate.

T1 sequence (P03951 388-625 limits assumed): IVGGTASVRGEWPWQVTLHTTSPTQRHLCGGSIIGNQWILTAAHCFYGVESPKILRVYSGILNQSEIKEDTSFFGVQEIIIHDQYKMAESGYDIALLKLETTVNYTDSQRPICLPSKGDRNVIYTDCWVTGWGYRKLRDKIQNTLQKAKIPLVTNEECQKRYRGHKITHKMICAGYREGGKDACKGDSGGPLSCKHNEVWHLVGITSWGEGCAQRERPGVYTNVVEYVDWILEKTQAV
T1 sequence (P03951 19-387 partner limits assumed): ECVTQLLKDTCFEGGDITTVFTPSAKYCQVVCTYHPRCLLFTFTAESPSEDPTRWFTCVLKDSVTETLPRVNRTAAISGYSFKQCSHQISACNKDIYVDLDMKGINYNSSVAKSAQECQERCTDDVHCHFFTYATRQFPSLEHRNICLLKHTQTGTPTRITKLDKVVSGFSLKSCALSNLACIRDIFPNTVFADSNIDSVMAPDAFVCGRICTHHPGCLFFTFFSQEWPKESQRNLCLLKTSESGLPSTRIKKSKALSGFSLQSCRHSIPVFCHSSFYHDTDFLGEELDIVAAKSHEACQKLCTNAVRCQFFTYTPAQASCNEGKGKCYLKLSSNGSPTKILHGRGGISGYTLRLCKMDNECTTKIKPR

For `N=C(N)NCCC[C@H](NC(=O)[C@@H]1CCCN1C(=O)[C@@H]1CCC(=O)N1)C(=O)Nc1ccc([N+](=O)[O-])cc1` [S-2366, L-pyroglutamyl-L-prolyl-L-arginine-p-nitroanilide] (HELM PEPTIDE1{[Glp].P.R.[O=[N+]([O-])c1ccc(N[*:1])cc1]}$$$$V2.0), which “Kcat to Km ratio” value is on record?
Its value is 5.5e+06 M⁻¹ s⁻¹.
